{"source": "patent US9532519B2", "about": "“Plant growth regulator and use thereof” (Japan Science and Technology Agency, priority 2006, dated 2017)", "key": {"[1]": {"test_system": "Arabidopsis", "test": "Effect of concentration of oxidized glutathione on growth of Arabidopsis", "assay_type": "in vivo", "experimental": "Specifically, soil filled in a pod of approximately 65 in width, 65 in depth, and 50 in height was immersed in 0 mM-, 0.01 mM-, 0.2 mM-, 1 mM-, 2 mM-, and 5 mM-GSSG solutions. Seeds of Arabidopsis were sown in such a manner that approximately three seeds existed in each pod, and the seeds were observed chronologically 3 weeks after the sowing."}, "[2]": {"test_system": "Sweet corn", "test": "Effect of oxidized glutathione on productivity of corn under nitrogen-deficient condition", "assay_type": "in vivo", "conditions": "nitrogen-deficient then 30 kgN/10a; 0.2, 0.5, 1.0 mM GSSG, 50 mL two times a week from 8 weeks after sowing", "experimental": "Sweet corn was sown and cultivated for […] (7 weeks) after the sowing without supplying a nitrogen source to the sweet corn. Thereafter, the sweet corn was cultivated with 30 kgN/10a of a nitrogen source. […] See the cultivation conditions in (c) of FIG. 33.\nIn order to examine the amount of production of the plants in more detail, the amounts of biomass of fruits, ground parts, and portions other than the fruits were measured, and harvest index was calculated."}, "[3]": {"test_system": "Rose saplings (breed; JJ scarlet and JJ apricot)", "test": "Effect 2 on promoting growth of sprout and floral bud of rose (JJ scarlet and JJ apricot)", "assay_type": "in vivo", "conditions": "50 mL of 0.5 mM-GSSG two times a week; fourth and eighth day from the fertilization", "experimental": "Rose saplings (breed; JJ scarlet and JJ apricot) were purchased at a hardware store and cultivated in pods for rice hydroponics. The rose saplings were fertilized with 50 mL of a 0.5 mM-GSSG solution in the form of a liquid fertilizer two times a week.\nIn (a)-(d) of FIG. 35, the breeds of three plants are JJ scarlet, JJ apricot, and JJ scarlet, respectively from the left."}, "[4]": {"test_system": "Arabidopsis", "test": "Influence of oxidized glutathione on growth of Arabidopsis", "assay_type": "in vivo", "conditions": "in vivo", "experimental": "Specifically, the plants were cultivated with two or three plants in one pod of approximately 65 in width, 65 in depth, and 50 in height, and an appropriate amount of a treatment solution was supplied. The effect of the treatment was evaluated with respect to the number of rosette leaves, the speed of a growing flower stalk, the number of flowers, and the number of seeds."}, "[5]": {"test_system": "Sweet corn (Canberra 90, TAKII & CO., LTD.)", "test": "Effect 1 of oxidized glutathione on productivity of corn", "assay_type": "in vivo", "conditions": "200 mL of 0.5 mM-GSSG two times a week for 12 weeks at root", "experimental": "Sweet corn (Canberra 90, TAKII & CO., LTD.) was sown, and then transferred to a hydroponics pot ( 1/2000 are) filled with a culture soil (6 L of vermiculite as the lower layer, 3 L of The Kureha Ikubyou Baido soil as the middle layer, and 3 L of vermiculite as the upper layer) two weeks later and additionally fertilized with 3 g of KUMIAI RIN […] S604 four weeks later and six weeks later. Further, the GSSG-treated plant was given 200 mL of 0.5 mM-GSSG two times a week for 12 weeks after germination at its root."}, "[6]": {"test_system": "Arabidopsis", "test": "Influence 2 of treatment condition on seeds of Arabidopsis (start time of 1 mM-GSSG)", "assay_type": "in vivo", "conditions": "regardless of the time of treating", "experimental": "Seeds of Arabidopsis were sown in pods filled with soil immersed in water. The pods were transferred to trays with water containing 1 mM-GSSG 2 days after, 1 week after, 2 weeks after, 3 weeks after, 4 weeks after, 5 weeks after, 6 weeks after, or 7 weeks after the sowing.\n(§1) Arabidopsis was cultivated under the same conditions as those described in <1. Influence of oxidized glutathione on growth of Arabidopsis> except for the above condition.\n(§2) The seed weight per one pod, obtained from Arabidopsis thus cultivated (three plants in each pod), was measured."}, "[7]": {"test_system": "Sweet corn", "test": "Effect 4 of oxidized glutathione on productivity of corn (method and time of treatment)", "assay_type": "in vivo", "conditions": "20 mL of 0.2 mM-GSSG each time, to roots or sprayed to stem and leaves; any of the treatment times", "experimental": "Sweet corn was cultivated under the same conditions as those of <15.\nHarvest index of the plant thus obtained was measured."}, "[8]": {"test_system": "Sweet corn", "conditions": "in vivo"}, "[9]": {"test_system": "Rose (breed; English rose)", "test": "Influence of oxidized glutathione on growth of rose (English rose)", "assay_type": "in vivo", "conditions": "50 mL of 0.5 mM-GSSG two times a week for four months, then pruned", "experimental": "Rose (breed; English rose) was fertilized with 50 mL of a 0.5 mM-GSSG solution two times a week for four months and then pruned completely and cultivated."}, "[10]": {"test_system": "Roses (breed; Patiohit alicante)", "test": "Effect 1 on promotion of induction of floral bud of rose", "assay_type": "in vivo", "conditions": "50 mL of 0.5 mM-GSSG two times a week; approximately three and a half months", "experimental": "Roses (breed; Patiohit alicante) were purchased at a hardware store and fertilized with 50 mL of a 0.5 mM-GSSG solution in the form of a liquid fertilizer two times a week. Approximately three and a half months later, plants in a GSSG-treated zone and plants in a non-GSSG-treated zone were compared with each other."}, "[11]": {"test_system": "rice (Akita 63)", "test": "Rice hydroponics, GSSG in additional fertilization, number of ears", "assay_type": "in vivo", "conditions": "GSSG 0.2 gN per test location (0.1 m2) in additional fertilization", "from_the_text": "In particular, the method is effective for a plant such as gramineae whose yield is greatly dependent on tillers."}, "[12]": {"test_system": "Arabidopsis", "test": "Influence 1 of treatment condition on seeds of Arabidopsis (concentration and duration from sowing)", "assay_type": "in vivo", "experimental": "Seeds of Arabidopsis were sown in pods filled with soil immersed in 0 mM-, 0.01 mM-, 0.2 mM-, 1 mM-, 2 mM-, and 5 mM-GSSG.\nas §1\nThe seed weight per one pod, obtained from Arabidopsis thus cultivated (three plants in each pod), was measured. The results of the measurement are shown in FIGS. 10-12. n is the number of plants that can be finally harvested."}, "[13]": {"test_system": "Arabidopsis", "test": "Influence 4 of treatment condition on seeds of Arabidopsis (two weeks of 1 mM-GSSG)", "assay_type": "in vivo", "conditions": "1 mM-GSSG only for two weeks in a specific growth period", "experimental": "Seeds of Arabidopsis were sown in pods filled with soil immersed in water. The pods were transferred to trays filled with water containing 1 mM-GSSG and cultivated there only for two weeks that are the first and second weeks (0th-14th day), the second and third weeks (8th-21st day), the third and fourth weeks (15th-28th day), the fourth and fifth weeks (22nd-35th day), the fifth and sixth weeks (29th-42nd day), or the sixth and seventh weeks (36th-49th day) after the sowing. That is, Arabidopsis were treated with 1 mM-GSSG only for two weeks in a specific growth period.\nas §1, §2"}, "[14]": {"conditions": "soil immersed in 0-5 mM GSSG solutions"}}, "note": "Where two headings read alike, the source gives them in different places.", "data": [{"substance": "oxidized glutathione [GSSG]", "values": [{"measurement": "difference from Arabidopsis cultivated with water (0 mM)", "setting": "[1]; 0.01 mM GSSG", "value": "almost no difference"}, {"measurement": "concentration at which making a leaf rounder and lengthening the life of a plant were clearly observed", "setting": "[1]; [14]", "value": "0.2 to 2", "unit": "mM"}, {"measurement": "concentration at which making a stem thicker was observed", "setting": "[1]; [14]", "value": "1 to 2", "unit": "mM"}, {"measurement": "amount of fruits vs not treated", "setting": "[2]", "value": "larger amount of fruits"}, {"measurement": "amounts of biomass of fruits, ground parts, portions other than the fruits, and harvest index vs not treated", "setting": "[2]", "value": "larger amounts of biomass of fruits, ground parts, and portions other than the fruits and harvest index"}, {"measurement": "growth of sprout vs not treated", "setting": "[3]", "value": "promoted growth of sprout"}, {"measurement": "effective number of seeds per plant relative to plants cultivated with only water or 5 mM H2O2", "setting": "[4]", "value": "approximately three or four times as large"}, {"measurement": "growth of leaves (size and shape)", "setting": "[4]", "value": "grew larger and rounder"}, {"measurement": "number of flowers and area of leaves", "setting": "[4]", "value": "greatly larger"}, {"measurement": "plant length, stem and leaves", "setting": "[4]", "value": "shorter plant length, a thicker stem, and larger leaves"}, {"measurement": "state of plant (life of plant)", "setting": "[4]", "value": "showed much amount of green leaves"}, {"measurement": "amount of biomass of the portions other than the fruits vs not treated", "setting": "[5]", "value": "no great difference"}, {"measurement": "amounts of biomass of the fruits and ground parts", "setting": "[5]", "value": "significantly high"}, {"measurement": "formation of floral buds vs not treated", "setting": "[5]", "value": "promotion of formation of floral buds"}, {"measurement": "harvest index vs not treated", "setting": "[5]", "value": "significantly high harvest index"}, {"measurement": "number of edible seeds vs not treated", "setting": "[5]", "value": "more number of edible seeds"}, {"measurement": "size of fruits vs not treated", "setting": "[5]", "value": "larger"}, {"measurement": "size of seeds vs not treated", "setting": "[5]", "value": "larger"}, {"measurement": "seed weight per one pod vs no treatment", "setting": "[6]", "value": "more seed weight"}, {"measurement": "harvest index vs not treated", "setting": "[7]", "value": "significantly increased"}, {"measurement": "amount of biomass of fruits per plant vs not treated", "setting": "[8]", "value": "higher amount of biomass of fruits"}, {"measurement": "amount of biomass of ground parts vs not treated", "setting": "[8]", "value": "substantially the same or lower amount of biomass of ground parts"}, {"measurement": "amount of biomass of the portions other than fruits vs not treated", "setting": "[8]", "value": "lower amount of biomass of the portions other than fruits"}, {"measurement": "amounts of biomass of the portions other than fruits and ground parts vs not treated", "setting": "[8]", "value": "greatly lower amounts of biomass of the portions other than fruits and ground parts"}, {"measurement": "harvest index vs not treated", "setting": "[8]", "value": "higher harvest index"}, {"measurement": "whole amount of biomass per area vs not treated", "setting": "[8]", "value": "did not exhibit a significant difference"}, {"measurement": "germination and growth of new buds vs not treated", "setting": "[9]", "value": "significantly earlier germination and significant promotion of growth of new buds"}, {"measurement": "number of bloomed flowers vs not treated", "setting": "[10]", "value": "greatly larger number of bloomed flowers"}, {"measurement": "number of ears relative to plant cultivated with only water", "setting": "[11]", "value": "approximately 1.4 times"}, {"measurement": "seed weight per pod: effective concentration", "setting": "[12]; supplying GSSG for a long time", "value": "GSSG with low concentration is more effective than GSSG with high concentration"}, {"measurement": "seed weight per pod: effective concentration", "setting": "[12]; supplying GSSG for a short time", "value": "GSSG with high concentration is more desirable"}, {"measurement": "seed weight per one pod vs not treated", "setting": "[13]", "value": "significantly increased the seed weight"}]}]}
